The source of these data is PMC6199744, “Development of Chemical Proteomics for the Folateome and Analysis of the Kinetoplastid Folateome” (ACS Infectious Diseases, 2018).

Common to all, as to format: binding
In experiment [1] the target is T1, HeLa cell extract proteins (Homo sapiens, UniProt P49257).
T1 construct: endogenous in cells; host or cells: HeLa cell extract
T1 sequence (P49257 31-510): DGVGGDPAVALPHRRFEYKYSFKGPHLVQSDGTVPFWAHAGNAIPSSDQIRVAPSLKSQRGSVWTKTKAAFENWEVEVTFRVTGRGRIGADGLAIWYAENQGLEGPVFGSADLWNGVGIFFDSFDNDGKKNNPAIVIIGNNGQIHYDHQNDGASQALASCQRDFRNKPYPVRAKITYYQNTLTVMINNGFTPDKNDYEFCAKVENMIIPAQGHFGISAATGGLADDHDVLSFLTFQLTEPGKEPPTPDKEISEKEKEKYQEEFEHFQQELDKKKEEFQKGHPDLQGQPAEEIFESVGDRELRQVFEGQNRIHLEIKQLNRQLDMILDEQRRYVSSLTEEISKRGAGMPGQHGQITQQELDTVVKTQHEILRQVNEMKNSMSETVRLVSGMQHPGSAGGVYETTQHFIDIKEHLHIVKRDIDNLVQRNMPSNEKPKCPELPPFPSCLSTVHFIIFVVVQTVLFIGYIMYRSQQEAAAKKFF
Conditions: protein LMAN1; HeLa.

Experiment [2] deals with T2, HeLa cell extract proteins (Homo sapiens, UniProt Q8N0W3).
T2 construct: endogenous in cells; host or cells: HeLa cell extract
T2 sequence (Q8N0W3 1-1084): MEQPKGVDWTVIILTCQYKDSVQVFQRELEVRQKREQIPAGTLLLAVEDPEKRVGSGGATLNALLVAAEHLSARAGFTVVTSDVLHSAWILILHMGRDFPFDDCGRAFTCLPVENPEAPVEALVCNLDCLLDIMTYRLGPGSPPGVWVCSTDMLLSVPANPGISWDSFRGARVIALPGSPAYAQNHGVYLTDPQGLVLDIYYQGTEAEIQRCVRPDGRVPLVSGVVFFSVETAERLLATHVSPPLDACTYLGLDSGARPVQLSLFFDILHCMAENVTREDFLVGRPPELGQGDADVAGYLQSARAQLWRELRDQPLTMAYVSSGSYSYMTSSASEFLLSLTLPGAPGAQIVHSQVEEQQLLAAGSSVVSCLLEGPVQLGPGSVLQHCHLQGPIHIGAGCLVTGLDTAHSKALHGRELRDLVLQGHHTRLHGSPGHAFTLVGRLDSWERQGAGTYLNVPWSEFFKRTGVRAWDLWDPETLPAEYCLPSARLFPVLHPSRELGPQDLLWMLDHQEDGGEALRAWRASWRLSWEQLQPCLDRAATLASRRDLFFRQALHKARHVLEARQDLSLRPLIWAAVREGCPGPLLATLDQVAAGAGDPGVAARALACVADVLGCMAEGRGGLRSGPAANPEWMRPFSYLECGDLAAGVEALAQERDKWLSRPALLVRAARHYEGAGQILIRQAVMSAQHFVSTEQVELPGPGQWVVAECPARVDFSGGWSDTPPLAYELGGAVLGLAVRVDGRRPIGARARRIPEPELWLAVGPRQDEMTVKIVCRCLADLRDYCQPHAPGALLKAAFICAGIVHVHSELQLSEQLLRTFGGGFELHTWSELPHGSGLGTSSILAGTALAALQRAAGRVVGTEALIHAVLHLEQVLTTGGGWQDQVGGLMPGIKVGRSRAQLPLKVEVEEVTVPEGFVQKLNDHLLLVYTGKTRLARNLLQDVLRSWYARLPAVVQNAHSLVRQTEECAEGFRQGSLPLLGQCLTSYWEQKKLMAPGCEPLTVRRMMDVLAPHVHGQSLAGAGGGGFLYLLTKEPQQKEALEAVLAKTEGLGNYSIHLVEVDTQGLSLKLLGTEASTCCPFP
Conditions: protein FUK; HeLa.

Experiment [3] deals with T3, HeLa cell extract proteins (Homo sapiens, UniProt P60891).
T3 construct: endogenous in cells; host or cells: HeLa cell extract
T3 sequence (P60891 1-318): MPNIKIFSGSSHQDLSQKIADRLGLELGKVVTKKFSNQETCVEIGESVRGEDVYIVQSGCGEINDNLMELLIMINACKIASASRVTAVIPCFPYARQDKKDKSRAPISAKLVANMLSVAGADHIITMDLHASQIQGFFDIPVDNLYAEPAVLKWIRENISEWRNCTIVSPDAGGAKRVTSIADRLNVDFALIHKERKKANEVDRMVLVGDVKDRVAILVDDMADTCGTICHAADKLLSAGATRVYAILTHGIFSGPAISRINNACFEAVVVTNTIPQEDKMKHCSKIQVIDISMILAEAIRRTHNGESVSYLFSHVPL

The target in experiment [4] is T4, HeLa cell extract proteins (Homo sapiens, UniProt Q9H9T3).
T4 construct: endogenous in cells; host or cells: HeLa cell extract
T4 sequence (Q9H9T3 1-547): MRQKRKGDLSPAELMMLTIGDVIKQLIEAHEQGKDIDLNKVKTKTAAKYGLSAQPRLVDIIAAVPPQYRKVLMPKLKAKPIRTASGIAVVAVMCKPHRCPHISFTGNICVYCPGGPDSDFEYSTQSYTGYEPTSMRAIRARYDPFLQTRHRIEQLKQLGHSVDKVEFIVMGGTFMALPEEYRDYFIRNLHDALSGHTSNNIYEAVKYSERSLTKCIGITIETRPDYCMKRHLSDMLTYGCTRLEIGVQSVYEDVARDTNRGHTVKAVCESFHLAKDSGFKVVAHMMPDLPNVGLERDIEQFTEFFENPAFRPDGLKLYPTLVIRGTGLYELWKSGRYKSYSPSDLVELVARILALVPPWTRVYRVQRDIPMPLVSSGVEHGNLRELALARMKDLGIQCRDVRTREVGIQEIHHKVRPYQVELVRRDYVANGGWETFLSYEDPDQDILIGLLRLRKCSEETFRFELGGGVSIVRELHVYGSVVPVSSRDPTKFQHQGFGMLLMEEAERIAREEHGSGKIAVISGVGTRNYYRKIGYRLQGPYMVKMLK

For experiment [5], the target named is T5, HeLa cell extract proteins (Homo sapiens, UniProt P45954).
T5 construct: endogenous in cells; host or cells: HeLa cell extract

Read-outs that look alike come from different tables or passages of the source.

With `Nc1nc2cccc(-c3ccccc3)c2n1Cc1ccc(Cl)c(Cl)c1` [compound 3], the “fold changes relative to vehicle control” value in experiment [1] was determined as 0.87; in experiment [2] it was 1.07.
With `NCCOCCOCC(=O)Nc1nc2ncc(CNc3ccc(C(=O)NC(CCC(=O)O)C(=O)O)cc3)nc2c(=O)[nH]1` (stereo not drawn) [compound 6], the “fold changes relative to vehicle control” value in experiment [3] (HeLa, protein PRPS1) is given as 1.08; in experiment [4] (protein ELP3, HeLa), 0.91; in experiment [5] (HeLa, protein ACADSB), 0.96.
Take `Nc1nc2[nH]cc(CCc3ccc(C(=O)N[C@@H](CCC(=O)O)C(=O)O)cc3)c2c(=O)[nH]1` [PTX, pemetrexed]: the “fold changes relative to vehicle control” value in experiment [3] was found to be 1.07; in experiment [4], 0.72; in experiment [5], 0.93.
Regarding `Nc1nc2c(c(=O)[nH]1)N(C=O)C(CNc1ccc(C(=O)N[C@@H](CCC(=O)O)C(=O)O)cc1)CN2` (stereo partly drawn) [LEU, leucovorin], the “fold changes relative to vehicle control” value is 1.12 in experiment [3] (HeLa, protein PRPS1); 0.88 in experiment [4] (protein ELP3, HeLa); 0.9 in experiment [5] (HeLa, protein ACADSB).
As to `CCCCCCOc1ccc(Cc2cnc(N)nc2N)cc1` [compound 1], the “fold changes relative to vehicle control” value in experiment [1] was 1.17; in experiment [2], 0.96.
With `NCCCNc1ccc(C(=O)NC(CCC(=O)O)C(=O)O)cc1` (stereo not drawn) [compound 7], the “fold changes relative to vehicle control” value in experiment [3] (HeLa, protein PRPS1) was found to be 0.9; in experiment [4] (protein ELP3, HeLa), 0.9; in experiment [5] (HeLa, protein ACADSB) it was 1.02.
Turning to `CCCCCCOc1cccc(Cc2cnc(N)nc2N)c1` [compound 2], the “fold changes relative to vehicle control” value is recorded as 1.57 in experiment [1] and 1.11 in experiment [2].
